Here are results for 6 compounds from patent US20090118211A1, “Compositions and Methods for Enhancement of Sexual Function” (priority 2005, published 2009).

For data set [1] the following is noted: cited from earlier work; for maximum observed plasma concentration (Cmax): oral administration.
The test system of data set [2] is premature ejaculation. The settings on record: cited from earlier work.
The subject of data set [3] is premature ejaculation. Nature of the data set: Retrospective analysis of clomipramine with or without a commercial PDE5 inhibitor taken as needed: ejaculation time. The note with it: rated after 8 weeks, one patient per row.
The subject of data set [4] is erectile dysfunction. Nature of the data set: Retrospective analysis of clomipramine with or without a commercial PDE5 inhibitor taken as needed: subjectively rated erection. The settings on record: after 8 weeks, one patient per row.
The test system of data set [5] is SSRI-induced sexual dysfunction. The note with it: in vivo; cited from earlier work.
In data set [6] the test system is erectile dysfunction. The settings on record: oral administration of 50-100 mg; cited from earlier work.

Where “and” joins values, the source holds several entries; their conditions need not be identical. Equal entries are not always repeated. Where two headings read alike, the source gives them in different places.

As to `CN(C)CCCN1c2ccccc2CCc2ccc(Cl)cc21` [Clomipramine, clomipramine], the “time of peak plasma levels after dosage” value in data set [1] (much individual variation) is 2 to 6 h. Moreover, the “time required to reach peak plasma concentration, longer than that required by tadalafil” value in data set [1] (relative to tadalafil) was “about 2 hours”. In addition, in data set [1] (relative to vardenafil or sildenafil), the “time required to reach peak plasma concentration, longer than that required by either vardenafil or sildenafil” value is 3 h. Besides, the “time to climax in premature ejaculators” value in the data set with premature ejaculation [2] (50 mg) is “more than 8 minutes”. Further, in the data set on premature ejaculation [2] (25 milligrams 12 to 24 hours before anticipated sexual activity, from about 1.5 to 2 minutes), the latency to ejaculation result is “about 8 minutes”. Moreover, the “effect alone in men with premature ejaculations who were also impotent” value with premature ejaculation [2] (clomipramine alone) is recorded as “ineffective”. Also, the “Ejaculation Time (minutes) after treatment” value in the data set with premature ejaculation [3] (Clomipramine 10 mg alone) is 10 min; in the data set on premature ejaculation [3] (Clomipramine 15 mg alone), 10 min and 4 min and 20 min; with premature ejaculation [3] (Clomipramine 25 mg alone) it was 7 minutes (2×) and 20 minutes (2×) and 15 minutes; in the data set with premature ejaculation [3] (Clomipramine 30 mg alone), 10 minutes (3×) and 15 minutes (2×) and 8 minutes and 4 minutes (2×) and 5 minutes and 20 minutes and 0.25 minutes and 3 minutes. The “Erection (% satisfaction) after (%)” value in the data set on erectile dysfunction [4] (Clomipramine 10 mg alone) was found to be 100%; in the data set on erectile dysfunction [4] (Clomipramine 15 mg alone, NC denotes no complain) it was 100%; in the data set with erectile dysfunction [4] (Clomipramine 25 mg alone, NC denotes no complain) it was 100%.
On to `CCCc1nc(C)c2c(=O)[nH]c(-c3cc(S(=O)(=O)N4CCN(CC)CC4)ccc3OCC)nn12` [vardenafil], for which the “AUC and Cmax versus dose” value in data set [1] (oral dosing, recommended dose range (5-20 mg)) is recorded as “increase in almost direct proportion to the dose”.
`CCCN(CCC)CCc1cccc2c1CC(=O)N2` [ropinrole]: in data set [5], the “effect on sexual dysfunction induced by citalopram, sertraline, paroxetine, fluoxetine and venlafaxine treatment” value is recorded as “effective”.
For `CN[C@H]1CC[C@@H](c2ccc(Cl)c(Cl)c2)c2ccccc21` [Sertraline, sertraline], the “effect as ejaculation delaying agent” value in the data set on premature ejaculation [2] (4 hours before sex, primary premature ejaculation versus sildenafil-corrected erectile dysfunction) is given as “effective as ejaculation delaying agent only for patients having primary premature ejaculation”.
In the case of `CN1CC(=O)N2[C@H](c3ccc4c(c3)OCO4)c3[nH]c4ccccc4c3C[C@@H]2C1=O` [tadalafil], in data set [1] (doses from 2.5 mg to 20 mg), the “Systemic exposure (AUC) versus dose” value was “increases proportionately” and the “increase in Cmax versus dose” value is “slightly less than proportional”. In data set [1] (once-daily 20 mg dosing), the “degree of drug accumulation” value is 1.6 fold and the “time to attain steady-state plasma concentrations” value is recorded as at most 5 days. In addition, the “maximum observed plasma concentration (Cmax)” value in data set [1] (20 mg) is 378 ng/mL.
As for `CCCc1nn(C)c2c(=O)[nH]c(-c3cc(S(=O)(=O)N4CCN(C)CC4)ccc3OCC)nc12` [sildenafil], the “subjects studied found to respond well” value in the data set on erectile dysfunction [6] is recorded as 82%. The “maximum observed plasma concentration (Cmax)” value in data set [1] (50-100 mg) is 18 ng/mL. Moreover, in the data set with premature ejaculation [2] (PDE5 inhibitor alone), the “effect alone for men with premature ejaculation” value was “ineffective”.
